Tested on: Kir3.2 E236R
Assay: Two-electrode voltage clamp, ACh-dependent (m2R-dependent) K+ current activation
Type: cell-based, mouse
Conditions: Kir3.2 E236R with m2R in Xenopus oocytes; various concentrations of ACh; end of test pulse to −120 mV
Text: The mouse Kir3.2d isoform was subjected to functional analyses. The amino acid numbers correspond to the longest mouse Kir3.2 isoform. Point mutations were introduced using the QuikChange site-directed mutagenesis kit (Stratagene, La Jolla, CA), and the presence of the mutations was confirmed by direct DNA sequencing. The care of Xenopus laevis was in accordance with the guideline of the Institute of Experimental Animal Sciences, Osaka University. The protocol was approved by the Animal Experiment Committee of Osaka University. The frogs were deeply anesthetized by immersing in 0.2% tricaine methanesulfonate for 20 min at 18°C. […] The currents were recorded in the absence or presence of various concentrations of acetylcholine (ACh). […] The data are expressed as mean values ± standard error of the mean. For the quantitative estimation of ACh-dependent current responses of the wild-type (WT) and mutant channels, the current amplitudes at the end of test pulses at each ACh concentration ([ACh]) were fitted using the following equation: […]
Figure 6 Introduction of reverse charge at position 236 of Kir3.2. […] Typical current traces of the E236R mutant recorded in the presence of various concentrations of ACh are shown. […] The current amplitudes at the end of the test pulse were normalized to that recorded at -100 mV. […]

CC(=O)OCC[N+](C)(C)C [ACh, acetylcholine] was tested, and the “Sensitivity of whole-cell K+ current to m2R-stimulation” value was “insensitive”.

— PMC3823594, “Conformational Changes Underlying Pore Dilation in the Cytoplasmic Domain of Mammalian Inward Rectifier K^+ Channels” (PLoS ONE, 2013)
